Laboratory results: patent US10821115B2, “Compounds that inhibit Mcl-1 protein” (priority 2017, dated 2020)
pIC50: −log10 of the molar value. Read-outs that look alike come from different tables or passages of the source.

Experiments:
[1] = molecular target: recombinant human Mcl-1 (residues 171-327) / Bim interaction (Homo sapiens (Human), UniProt Q07820); test: biochemical; type: binding; details: TR-FRET, Mcl-1(171-327) / biotin-Bim (51-76); read-out: Mcl-1 HTRF IC50
[2] = system: human multiple myeloma cell line, OPM-2; test: Cell viability assay (OPM-2 10 FBS), CellTiter-Glo; type: cell-based
Summary of the method: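 OPM-2 cells at 3000 cells/well in RPMI 1640 with 10% FBS were exposed to serially diluted compounds for 16 h at 37 °C, 5% CO2.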

[3] = Homo sapiens, OPM-2, 16 h, read-out: OPM-2 10% FBS IC50 IP, OPM-2 cells, 10% FBS, 16 h, CellTiter-Glo

Sequence of recombinant human Mcl-1 (residues 171-327) / Bim interaction (Q07820 171-327): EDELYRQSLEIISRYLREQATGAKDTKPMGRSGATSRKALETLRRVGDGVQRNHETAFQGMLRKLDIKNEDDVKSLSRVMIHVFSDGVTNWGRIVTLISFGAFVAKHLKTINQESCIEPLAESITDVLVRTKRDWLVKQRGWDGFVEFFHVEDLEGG

Compound | pIC50 [1] | pIC50 [2, 3] | pIC50 ([2]; read-out: OPM-2 10% FBS IC50 IP, OPM-2 cells, 10% FBS, 16 h, CellTiter-Glo)
COCC#C[C@@]1(OC)/C=C/C[C@H](C)[C@@H](C)S(=O)(=O)NC(=O)c2ccc3c(c2)N(C[C@@H]2CC[C@H]21)C[C@@]1(CCCc2cc(Cl)ccc21)CO3 [Example 100343, (1S,3′R,6′R,7′R,8′E,11′S,12′R)-6-chloro-7′-methoxy-7′-(3-methoxy-1-propyn-1-yl)-11′,12′-dimethyl-3,4-dihydro-2H,15′H-spiro[naphthalene-1,22′-[20]oxa[13]thia[1,14]diazatetracyclo [14.7.2.0~3,6~.0~19,24~]pentacosa[8,16,18,24]tetraen]-15′-one 13′,13′-dioxide] | 8.60 | 6.21 | 
CO[C@@]1(C#CCO)/C=C/C[C@H](C)[C@@H](C)S(=O)(=O)NC(=O)c2ccc3c(c2)N(C[C@@H]2CC[C@H]21)C[C@@]1(CCCc2cc(Cl)ccc21)CO3 [Example 100344, (1S,3′R,6′R,7′S,8′E,11′S,12′R)-6-chloro-7′-(3-hydroxy-1-propyn-1-yl)-7′-methoxy-11′,12′-dimethyl-3,4-dihydro-2H,15′H-spiro[naphthalene-1,22′-[20]oxa[13]thia[1,14]diazatetracyclo [14.7.2.0~3,6~.0~19,24~]pentacosa[8,16,18,24]tetraen]-15′-one 13′,13′-dioxide] | 9.51 | 6.54 | 
CO[C@@]1(C#CCO)/C=C/C[C@H](C)[C@@H](C)S(=O)(=O)NC(=O)c2ccc3c(c2)N(C[C@@H]2CC[C@H]21)C[C@@]1(CCCc2cc(Cl)ccc21)CO3 [Example 100345, (1S,3′R,6′R,7′S,8′E,11′S,12′R)-6-chloro-7′-(3-hydroxy-1-propyn-1-yl)-7′-methoxy-11′,12′-dimethyl-3,4-dihydro-2H,15′H-spiro[naphthalene-1,22′-[20]oxa[13]thia[1,14]diazatetracyclo [14.7.2.0~3,6~.0~19,24~]pentacosa[8,16,18,24]tetraen]-15′-one 13′,13′-dioxide] | 8.62 |  | 6.66
C[C@@H]1[C@@H](C)C/C=C/[C@@](O)(CC2=NC(C)(C)CO2)[C@@H]2CC[C@H]2CN2C[C@@]3(CCCc4cc(Cl)ccc43)COc3ccc(cc32)C(=O)NS1(=O)=O [Example 100346, (1S,3′R,6′R,7′S,8′E,11′S,12′R)-6-chloro-7′-((4,4-dimethyl-4,5-dihydro-1,3-oxazol-2-yl)methyl)-7′-hydroxy-11′,12′-dimethyl-3,4-dihydro-2H,15′H-spiro[naphthalene-1,22′-[20]oxa[13]thia[1,14]diazatetracyclo [14.7.2.0~3,6~.0~19,24~]pentacosa[8,16,18,24]tetraen]-15′-one 13′,13′-dioxide] | 9.13 | 6.61 | 
C[C@@H]1[C@@H](C)C/C=C/[C@](O)(c2cccnn2)[C@@H]2CC[C@H]2CN2C[C@@]3(CCCc4cc(Cl)ccc43)COc3ccc(cc32)C(=O)NS1(=O)=O [Example 100349, (1S,3′R,6′R,7′R,8′E,11′S,12′R)-6-chloro-7′-hydroxy-11′,12′-dimethyl-7′-(3-pyridazinyl)-3,4-dihydro-2H,15′H-spiro[naphthalene-1,22′-[20]oxa[13]thia[1,14]diazatetracyclo [14.7.2.0~3,6~.0~19,24~]pentacosa[8,16,18,24]tetraen]-15′-one 13′,13′-dioxide] | 8.94 | 7.24 | 
CO[C@]1(CCOS(C)(=O)=O)/C=C/C[C@H](C)[C@@H](C)S(=O)(=O)NC(=O)c2ccc3c(c2)N(C[C@@H]2CC[C@H]21)C[C@@]1(CCCc2cc(Cl)ccc21)CO3 [Example 100351, 2-((1S,3′R,6′R,7′R,8′E,11′S,12′R)-6-chloro-7′-methoxy-11′,12′-dimethyl-13′,13′-dioxido-15′-oxo-3,4-dihydro-2H-spiro[naphthalene-1,22′-[20]oxa[13]thia[1,14]diazatetracyclo [14.7.2.0~3,6~.0~19,24~]pentacosa[8,16,18,24]tetraen]-7′-yl)ethyl methanesulfonate] | 9.94 | 5.69 | 
COc1ncccc1[C@]1(OC)/C=C/C[C@H](C)[C@@H](C)S(=O)(=O)NC(=O)c2ccc3c(c2)N(C[C@@H]2CC[C@H]21)C[C@@]1(CCCc2cc(Cl)ccc21)CO3 [Example 100352, (1S,3′R,6′R,7′S,8′E,11′S,12′R)-6-chloro-7′-methoxy-7′-(2-methoxy-3-pyridinyl)-11′,12′-dimethyl-3,4-dihydro-2H,15′H-spiro[naphthalene-1,22′-[20]oxa[13]thia[1,14]diazatetracyclo [14.7.2.0~3,6~.0~19,24~]pentacosa[8,16,18,24]tetraen]-15′-one 13′,13′-dioxide] | 8.56 | 6.61 | 
C[C@@H]1[C@@H](C)CCC[C@@](O)(C#CCN2CCOCC2)[C@@H]2CC[C@H]2CN2C[C@@]3(CCCc4cc(Cl)ccc43)COc3ccc(cc32)C(=O)NS1(=O)=O [Example 100354, (1S,3′R,6′R,7′S,11′S,12′R)-6-chloro-7′-hydroxy-11′,12′-dimethyl-7′-(3-(4-morpholinyl)-1-propyn-1-yl)-3,4-dihydro-2H,15′H-spiro[naphthalene-1,22′-[20]oxa[13]thia[1,14]diazatetracyclo [14.7.2.0~3,6~.0~19,24~]pentacosa[16,18,24]trien]-15′-one 13′,13′-dioxide] | 9.96 | 6.83 | 
C[C@@H]1[C@@H](C)C/C=C/[C@@](O)(COCCN2CCOCC2)[C@@H]2CC[C@H]2CN2C[C@@]3(CCCc4cc(Cl)ccc43)COc3ccc(cc32)C(=O)NS1(=O)=O [Example 100355, (1S,3′R,6′R,7′S,8′E,11′S,12′R)-6-chloro-7′-hydroxy-11′,12′-dimethyl-7′-((2-(4-morpholinyl)ethoxy)methyl)-3,4-dihydro-2H,15′H-spiro[naphthalene-1,22′-[20]oxa[13]thia[1,14]diazatetracyclo [14.7.2.0~3,6~.0~19,24~]pentacosa[8,16,18,24]tetraen]-15′-one 13′,13′-dioxide] | 9.27 | 6.11 | 
C[C@@H]1[C@@H](C)C/C=C/[C@](O)(COCCN2CCOCC2)[C@@H]2CC[C@H]2CN2C[C@@]3(CCCc4cc(Cl)ccc43)COc3ccc(cc32)C(=O)NS1(=O)=O [Example 100356, (1S,3′R,6′R,7′R,8′E,11′S,12′R)-6-chloro-7′-hydroxy-11′,12′-dimethyl-7′-((2-(4-morpholinyl)ethoxy)methyl)-3,4-dihydro-2H,15′H-spiro[naphthalene-1,22′-[20]oxa[13]thia[1,14]diazatetracyclo [14.7.2.0~3,6~.0~19,24~]pentacosa[8,16,18,24]tetraen]-15′-one 13′,13′-dioxide] | 10.08 | 7.15 | 
C[C@@H]1[C@@H](C)C/C=C/[C@@](O)(c2cnccn2)[C@@H]2CC[C@H]2CN2C[C@@]3(CCCc4cc(Cl)ccc43)COc3ccc(cc32)C(=O)NS1(=O)=O [Example 100357, (1S,3′R,6′R,7′S,8′E,11′S,12′R)-6-chloro-7′-hydroxy-11′,12′-dimethyl-7′-(2-pyrazinyl)-3,4-dihydro-2H,15′H-spiro[naphthalene-1,22′-[20]oxa[13]thia[1,14]diazatetracyclo [14.7.2.0~3,6~.0~19,24~]pentacosa[8,16,18,24]tetraen]-15′-one 13′,13′-dioxide] | 9.65 | 6.40 | 
